The values below come from PMC10061639 (ACS Omega, 2023).

Structures are written as SMILES. Values after ≈ are worked out from the molar mass of the structure shown.

The conditions of data set [1]: cited from earlier work.
Data set [2] can be described thus: Experimental saturated solubility of ENO in excipients. It counts as physicochemical. As to conditions: thermodynamic from solid.
Data set [3] in a line: Hansen solubility parameters estimated with HSPiP program. As to conditions: HSP parameters of ENE5 based on composition.
The conditions of data set [4]: cited from earlier work. This is another data set of the same source.

As for `CCn1cc(C(=O)O)c(=O)c2cc(F)c(N3CCNCC3)nc21` [ENO, Enoxacin], in data set [1] (an experimental value), the aqueous solubility is 290 µg/mL (≈ 0.905 mM). Moreover, the pKa in data set [1] was 5.5. Also, the solubility at 72 h came out at 2800 µg/mL (≈ 8.74 mM) in data set [2] (C90, 40 °C); 5400 µg/mL (≈ 16.9 mM) in data set [2] (Miglyol 812N, 40 °C, oil or lipid); 6700 µg/mL (≈ 20.9 mM) in data set [2] (NMP (N-methyl-2-pyrrolidone), 40 °C); 1500 µg/mL (≈ 4.68 mM) in data set [2] (Tween 80, 40 °C).

For `CN1CCCC1=O` [NMP, N-methyl-2-pyrrolidone], in data set [3], the “δd, share of the component in ENE5 based on composition” value was 8.1; the “δh, share of the component in ENE5 based on composition” value was 3.33; the “δp, share of the component in ENE5 based on composition” value was 4.46.

For the compound `CCOCCOCCO` [Transcutol-HP], in data set [4], the HLB was 14.5.

As to `CCCCCCCC/C=C\CCCCCCCC(=O)OCCOCC(OCCO)C1OCC(OCCO)C1OCCO` (stereo not shown) [Tween 80], in data set [3], the “δd, share of the component in ENE5 based on composition” value was 2.52; the “δh, share of the component in ENE5 based on composition” value is given as 1.425; the “δp, share of the component in ENE5 based on composition” value is listed as 0.975.
